Publication PMC10510381, “Alkyne as a Latent Warhead to Covalently Target SARS-CoV-2 Main Protease” (Journal of Medicinal Chemistry, 2023)

Molecular target: C145A mutant of M^pro (Severe acute respiratory syndrome coronavirus 2, UniProt P0DTD1, C3408A)
Format: cell-based, SARS-CoV-2

C#CC[C@H](NC(=O)C(F)(F)F)C(=O)N1C[C@H]2[C@@H]([C@H]1C(=O)N[C@H](C#C)C[C@@H]1CCNC1=O)C2(C)C [Alk-4d, O=C1NCC[C@H]1C[C@@H](C#C)NC([C@H]2N(C([C@@H](NC(C(F)(F)F)=O)CC#C)=O)C[C@H]3[C@@H]2C3(C)C)=O]
labeling of C145A mutant of M^pro in cells: no labeling
